pIC50: −log10 of the molar value. Counter-ions that a name gives are not always drawn.
Tests used:
[1] = molecular target: T1, NLRP3 (Homo sapiens, UniProt Q96P20); experiment: THP-1 cells pyroptosis assay; assay type: cell-based; set-up: Seed THP-1 cells (25,000cells/well) containing 1.0 μg/ml LPS in 40 μl of RPMI medium; host or cells: THP-1 cells; details: LPS 1 μg/ml, nigericin 5 μM, resazurin readout
Experimental: The cells were routinely passaged and grown to confluency (˜10^6 cells/ml). On the day of the experiment, THP-1 cells were harvested and resuspended into RPMI medium (without FBS). The cells were then counted and viability (>90%) checked by Trypan blue (Sigma #T8154). […] To this diluted cell solution was added LPS (Sigma #L4524) to give a 1 μg/ml Final Assay Concentration (FAC). 40 μl of the final preparation was aliquoted into each well of a 96-well plate. The plate thus prepared was used for compound screening.
The following method step-by-step assay was followed for compound screening. • 1. […] Incubate for 3 hrs at 37° C., 5% CO2 • 4. Add 5 μl nigericin (Sigma #N7143) (FAC 5 μM) to all wells • 5. Incubate for 1 hr at 37° C., 5% CO2 • 6. At the end of the incubation period, spin plates at 300×g for 3 mins and remove supernatant • 7. Then add 50 μl of resazurin (Sigma #R7017) (FAC 100 μM resazurin in RPMI medium without FBS) and incubate plates for a further 1-2 hrs at 37° C. and 5% CO2 • 8. […] IC50 data is fitted to a non-linear regression equation (log inhibitor vs response-variable slope 4-parameters)

[2] = molecular target: T1, NLRP3; experiment: Human whole blood IL-1β release assay; assay type: cell-based; set-up: Human whole blood in Li-heparin tubes was obtained from healthy donors from a volunteer donor panel; from tissue; host or cells: human whole blood from healthy donors; details: LPS 1 μg/ml, nigericin 10 μM, IL-1β AlphaLisa, read-out: HWB IC50
Experimental: For systemic delivery, the ability to inhibit NLRP3 when the compounds are present within the bloodstream is of great importance. For this reason, the NLRP3 inhibitory activity of a number of compounds in human whole blood was investigated in accordance with the following protocol.
Human whole blood in Li-heparin tubes was obtained from healthy donors from a volunteer donor panel. • 1. […] Incubate for 3 hrs at 37° C., 5% CO2 • 4. Add 10 μl nigericin (Sigma #N7143) (10 μM FAC) to all wells • 5. Incubate for 1 hr at 37° C., 5% CO2 • 6. At the end of the incubation period, spin plates at 300 ×g for 5 mins to pellet cells and remove 20 μl of supernatant and add to 96-well v-bottom plates for IL-1β analysis (note: these plates containing the supernatants can be stored at −80° C. to be analysed at a later date) • 7. IL-1β was measured according to the manufacturer protocol (Perkin Elmer-AlphaLisa IL-1 Kit AL220F-5000) • 8. IC50 data is fitted to a non-linear regression equation (log inhibitor vs response-variable slope 4-parameters)

T1 sequence (Q96P20 whole entry): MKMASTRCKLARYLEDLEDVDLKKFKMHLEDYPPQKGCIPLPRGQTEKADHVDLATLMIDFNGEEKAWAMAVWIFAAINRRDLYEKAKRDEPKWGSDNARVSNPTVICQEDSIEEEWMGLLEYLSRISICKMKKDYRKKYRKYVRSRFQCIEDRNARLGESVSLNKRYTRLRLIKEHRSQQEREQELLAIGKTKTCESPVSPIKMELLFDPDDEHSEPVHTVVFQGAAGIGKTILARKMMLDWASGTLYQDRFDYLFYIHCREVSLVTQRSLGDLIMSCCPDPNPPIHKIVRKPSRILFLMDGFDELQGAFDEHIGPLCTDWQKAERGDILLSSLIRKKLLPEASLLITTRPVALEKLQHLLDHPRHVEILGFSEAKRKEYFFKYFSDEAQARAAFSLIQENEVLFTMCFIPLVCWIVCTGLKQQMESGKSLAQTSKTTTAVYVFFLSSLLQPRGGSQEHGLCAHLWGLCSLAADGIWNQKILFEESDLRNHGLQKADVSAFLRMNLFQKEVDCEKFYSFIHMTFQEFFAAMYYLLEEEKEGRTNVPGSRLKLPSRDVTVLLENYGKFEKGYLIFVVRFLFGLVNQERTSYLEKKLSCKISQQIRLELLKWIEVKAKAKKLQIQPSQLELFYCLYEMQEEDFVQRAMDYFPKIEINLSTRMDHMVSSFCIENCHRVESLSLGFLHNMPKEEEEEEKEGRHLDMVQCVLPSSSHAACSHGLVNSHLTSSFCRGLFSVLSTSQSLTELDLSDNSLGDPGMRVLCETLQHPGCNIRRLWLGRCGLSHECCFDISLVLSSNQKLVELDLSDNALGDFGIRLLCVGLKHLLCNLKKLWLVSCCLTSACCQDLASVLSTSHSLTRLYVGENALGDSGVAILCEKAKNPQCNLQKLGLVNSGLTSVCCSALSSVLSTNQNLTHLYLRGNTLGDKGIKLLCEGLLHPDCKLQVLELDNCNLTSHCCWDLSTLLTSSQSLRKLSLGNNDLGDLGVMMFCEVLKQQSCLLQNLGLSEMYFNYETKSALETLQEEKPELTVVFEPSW

Structure (SMILES)	pIC50 [1]	pIC50 [2]
COc1cc(-c2c(C)cc3c(c2NC(=O)NS(=O)(=O)c2ccccc2)CCC3)ccn1 [Example 11]	≥ 6.60	5.70 to 6.00
COc1cc(-c2c(F)c(F)cc(C(C)C)c2NC(=O)NS(C)(=O)=O)ccn1 [Example 33]	6.00 to 6.30	5.70 to 6.00
COc1cc(-n2c(C)nc(C(C)C)c2NC(=O)NS(=O)(=O)c2cc(C(C)(C)O)co2)ccn1 [Example 48, 4-(2-Hydroxypropan-2-yl)-N-((4-isopropyl-1-(2-methoxypyridin-4-yl)-2-methyl-1H-imidazol-5-yl)carbamoyl)furan-2-sulfonamide]	6.30 to 6.60	6.30 to 6.60
COc1cc(-c2c(C)cc3c(c2NC(=O)NS(=O)(=O)N(C)C)CCC3)ccn1 [Example 13]	≥ 6.60	6.00 to 6.30
Cc1nc(C(C)C)c(NC(=O)NS(=O)(=O)c2cc(C(C)(C)O)co2)n1-c1ccncc1 [Example 46, 4-(2-Hydroxypropan-2-yl)-N-((4-isopropyl-2-methyl-1-(pyridin-4-yl)-1H-imidazol-5-yl)carbamoyl)furan-2-sulfonamide, ammonium salt]	≥ 6.60	≥ 6.60
COCC(C)Oc1cc(-c2c(C)cc3c(c2NC(=O)NS(C)(=O)=O)CCC3)ccn1 (centres unmarked) [Example 25]	≥ 6.60	6.30 to 6.60
Cc1cc2c(c(NC(=O)NS(C)(=O)=O)c1-c1ccnc(OC(F)F)c1)CCC2 [Example 3]	≥ 6.60	6.00 to 6.30
Cc1cc2c(c(NC(=O)NS(=O)(=O)C(C)(C)C)c1-c1ccnc(OC3CCN(C)CC3)c1)CCC2 [Example 18]	≥ 6.60	5.30 to 5.70
Cc1cc2c(c(NC(=O)NS(=O)(=O)c3ccn(C(C)C)n3)c1-c1ccnc(OC3CCN(C)CC3)c1)CCC2 [Example 44]	≥ 6.60	6.30 to 6.60
Cc1cc2c(c(NC(=O)NS(C)(=O)=O)c1-c1ccnc(OC3CCN(C)CC3)c1)CCC2 [Example 28]	≥ 6.60	≥ 6.60
Cc1nc(C(C)C)c(NC(=O)NS(=O)(=O)N(C)C2CCN(C)C2)n1-c1ccncc1 (centres unmarked) [Example 49, 1-(5-Isopropyl-2-methyl-3-(4-pyridyl)imidazol-4-yl)-3-(methyl-(1-methylpyrrolidin-3-yl)sulfamoyl)urea]	5.00 to 5.30	–
Cc1cc2c(c(NC(=O)NS(=O)(=O)c3cc(C(C)(C)O)co3)c1-c1ccnc(OC3CCN(C)CC3)c1)CCC2 [Example 45]	≥ 6.60	6.00 to 6.30
COc1cc(-c2c(C)cc3c(c2NC(=O)NS(=O)(=O)c2ccn(C4CC4)n2)CCC3)ccn1 [Example 35]	≥ 6.60	6.00 to 6.30
Cc1cc2c(c(NC(=O)NS(=O)(=O)N(C)C)c1-c1ccnc(OC3CCN(C)CC3)c1)CCC2 [Example 26]	≥ 6.60	≥ 6.60
Cc1cc2c(c(NC(=O)NS(C)(=O)=O)c1-c1ccnc(O[C@H]3CC[C@@H](O)CC3)c1)CCC2 [Example 6]	≥ 6.60	≥ 6.60
Cc1cc(-c2c(C)cc3c(c2NC(=O)NS(C)(=O)=O)CCC3)ccn1 [Example 1, N-((6-Methyl-5-(2-methylpyridin-4-yl)-2,3-dihydro-1H-inden-4-yl)carbamoyl)methanesulfonamide]	6.00 to 6.30	6.00 to 6.30
Cc1cc2c(c(NC(=O)NS(=O)(=O)c3ccccc3)c1-c1ccnc(OC3CCN(C)CC3)c1)CCC2 [Example 19]	≥ 6.60	6.00 to 6.30
Cc1cc2c(c(NC(=O)NS(C)(=O)=O)c1-c1ccnc(OC3CCOCC3)c1)CCC2 [Example 22]	≥ 6.60	≥ 6.60

Structure (SMILES)	pIC50 [1]	pIC50 [2]
[2H]C([2H])([2H])Oc1cc(-c2c(C)c(F)cc(C(C)C)c2NC(=O)NS(C)(=O)=O)ccn1 [Example 8]	6.30 to 6.60	6.00 to 6.30
Cc1cc2c(c(NC(=O)NS(C)(=O)=O)c1-c1ccnc(OC3CCCCC3)c1)CCC2 [Example 16]	≥ 6.60	5.70 to 6.00
CCc1c(F)cc(C(C)C)c(NC(=O)NS(C)(=O)=O)c1-c1ccnc(OC)c1 [Example 38]	6.30 to 6.60	5.70 to 6.00
CCS(=O)(=O)NC(=O)Nc1c2c(cc(C)c1-c1ccnc(OC)c1)CCC2 [Example 42]	≥ 6.60	6.30 to 6.60
COc1cc(-c2c(C)cc3c(c2NC(=O)NS(=O)(=O)C2CC2)CCC3)ccn1 [Example 12]	≥ 6.60	6.00 to 6.30
Cc1cc2c(c(NC(=O)NS(C)(=O)=O)c1-c1ccncc1)CCC2 [Example 2]	≥ 6.60	6.30 to 6.60
Cc1cc2c(c(NC(=O)NS(C)(=O)=O)c1-c1ccnc(C#N)c1)CCC2 [Example 36]	6.00 to 6.30	6.00 to 6.30
COc1cc(-c2c(C)c(F)cc(C(C)C)c2NC(=O)NS(=O)(=O)c2ccn(C3CC3)n2)ccn1 [Example 29]	≥ 6.60	5.70 to 6.00
COc1cc(-c2c(C)c(F)cc(C(C)C)c2NC(=O)NS(C)(=O)=O)ccn1 [Example 7]	6.30 to 6.60	6.00 to 6.30
COc1cc(-c2c(C)cc3c(c2NC(=O)NS(C)(=O)=O)CCC3)ccn1 [Example 40, N-((5-(2-Methoxypyridin-4-yl)-6-methyl-2,3-dihydro-1H-inden-4-yl)carbamoyl)methanesulfonamide, sodium salt]	≥ 6.60	6.30 to 6.60
Cc1cc2c(c(NC(=O)NS(C)(=O)=O)c1-c1ccnc(OC3CCN(C)CC3)c1C)CCC2 [Example 20]	6.30 to 6.60	6.30 to 6.60
Cc1cc2c(c(NC(=O)NS(C)(=O)=O)c1-c1ccnc(OC3CC3)c1)CCC2 [Example 4]	≥ 6.60	6.30 to 6.60
Cc1cc2c(c(NC(=O)NS(=O)(=O)C3CC3)c1-c1ccnc(OC3CCN(C)CC3)c1)CCC2 [Example 21]	≥ 6.60	≥ 6.60
COc1cc(-c2c(NC(=O)NS(C)(=O)=O)c(C(C)C)cc(F)c2C2CC2)ccn1 [Example 31]	6.00 to 6.30	5.70 to 6.00
Cc1nc(C(C)C)c(NC(=O)NS(=O)(=O)c2ccn(C3CC3)n2)n1-c1ccncc1 [Example 47, 1-Cyclopropyl-N-((4-isopropyl-2-methyl-1-(pyridin-4-yl)-1H-imidazol-5-yl)carbamoyl)-1H-pyrazole-3-sulfonamide]	6.30 to 6.60	6.30 to 6.60
COc1cc(-c2c(C3CC3)cc3c(c2NC(=O)NS(C)(=O)=O)CCC3)ccn1 [Example 34]	≥ 6.60	5.70 to 6.00
[2H]C([2H])([2H])Oc1cc(-c2c(C)cc3c(c2NC(=O)NS(C)(=O)=O)CCC3)ccn1 [Example 10]	≥ 6.60	6.30 to 6.60
CCOc1cc(-c2c(C)cc3c(c2NC(=O)NS(C)(=O)=O)CCC3)ccn1 [Example 5]	≥ 6.60	6.30 to 6.60
